Source: PubChem BioAssay AID328 (DTP/NCI, 2004)
“And” between values parts separate entries of the source, which are not always exact repeats. Identical values can stand only once. Toxic doses and inconclusive results are not listed. Residues, ends and D or L forms follow the SMILES beside them. *: point of attachment. Cbz = O=C(OCc1ccccc1)*; NHNH2 = NN*

System: BDF1 mice, P388 leukemia ip, median survival T/C
Assay: NCI In Vivo Anticancer Drug Screen. Data for tumor model P388 Leukemia (intraperitoneal) in B6D2F1 (BDF1) mice
Conditions: endpoint: median survival time, higher = longer survival
In short: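 Read-out is survival of treated animals expressed relative to the vehicle group, as a T/C ratio.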

[1] = dose: 25.0 mg/kg/injection, schedule: Q01DX009 (ip), vehicle: saline
[2] = dose: 50.0 mg/kg/injection, schedule: Q01DX009 (ip), vehicle: saline
[3] = dose: 100.0 mg/kg/injection, schedule: Q01DX009 (ip), vehicle: saline
[4] = dose: 200.0 mg/kg/injection, schedule: Q01DX009 (ip), vehicle: saline
[5] = dose: 200.0 mg/kg/injection, schedule: Q04DX003 (ip), vehicle: Klucel (hydroxypropylcellulose) (HPC)
[6] = dose: 6.25 mg/kg/injection, schedule: Q01DX009 (ip), vehicle: Klucel (hydroxypropylcellulose) (HPC)
[7] = dose: 100.0 mg/kg/injection, schedule: Q04DX003 (ip), vehicle: other
[8] = dose: 25.0 mg/kg/injection, schedule: Q04DX003 (ip), vehicle: saline
[9] = dose: 50.0 mg/kg/injection, schedule: Q01DX009 (ip), vehicle: saline with Tween-80
[10] = dose: 100.0 mg/kg/injection, schedule: Q01DX009 (ip), vehicle: saline with Tween-80
[11] = dose: 25.0 mg/kg/injection, schedule: Q01DX009 (ip), vehicle: Klucel (hydroxypropylcellulose) (HPC)
[12] = dose: 50.0 mg/kg/injection, schedule: Q01DX009 (ip), vehicle: Klucel (hydroxypropylcellulose) (HPC)

CCC1(Br)OC1=O (stereo unspecified)
T/C (dose: 150.0 mg/kg/injection, schedule: Q01DX009 (ip), vehicle: saline): 115 % of control
T/C (dose: 335.0 mg/kg/injection, schedule: Q01DX009 (ip), vehicle: saline): 115 % of control

Br/C(=N\Nc1nn[nH]n1)c1ccncc1
T/C [1]: 90 % of control
T/C [2]: 100 % of control and 104 % of control
T/C [3]: 90 % of control and 100 % of control
T/C [4]: 95 % of control and 113 % of control

CN(C)CCCNC(=O)Nc1ccccc1
T/C (dose: 100.0 mg/kg/injection, schedule: Q04DX003 (ip), vehicle: Klucel (hydroxypropylcellulose) (HPC)): 95 % of control
T/C [5]: 104 % of control

CC(Cc1ccc(O)c(O)c1)C(C)Cc1ccc(O)c(O)c1 (stereo unspecified)
T/C (dose: 50.0 mg/kg/injection, schedule: Q01DX010 (ip), vehicle: saline): 100 % of control
T/C (dose: 100.0 mg/kg/injection, schedule: Q01DX010 (ip), vehicle: saline): 104 % of control
T/C (dose: 200.0 mg/kg/injection, schedule: Q01DX010 (ip), vehicle: saline): 104 % of control

COc1cc2c3cc1Oc1c(OC)c(OC)cc4c1C(Cc1ccc(O)c(c1)-c1cc(ccc1OC)CC3N(C)CC2)N(C)CC4 (stereo unspecified)
T/C (dose: 1.56 mg/kg/injection, schedule: Q01DX009 (ip), vehicle: Klucel (hydroxypropylcellulose) (HPC)): 91 % of control
T/C (dose: 3.13 mg/kg/injection, schedule: Q01DX009 (ip), vehicle: Klucel (hydroxypropylcellulose) (HPC)): 87 % of control
T/C [6]: 87 % of control
T/C (dose: 50.0 mg/kg/injection, schedule: Q01DX009 (ip), vehicle: carboxymethylcellulose (CMC)): 88 % of control

CN1CCCC(CC2c3ccccc3Sc3ccccc32)C1 (stereo unspecified)
T/C (dose: 7.5 mg/kg/injection, schedule: Q01DX010 (ip), vehicle: saline): 100 % of control
T/C (dose: 15.0 mg/kg/injection, schedule: Q01DX010 (ip), vehicle: saline): 100 % of control
T/C (dose: 30.0 mg/kg/injection, schedule: Q01DX010 (ip), vehicle: saline): 100 % of control
T/C (dose: 60.0 mg/kg/injection, schedule: Q01DX010 (ip), vehicle: saline): 109 % of control

CCc1ccccc1NC(=O)c1ccccc1Cl
T/C [7]: 109 % of control
T/C (dose: 200.0 mg/kg/injection, schedule: Q04DX003 (ip), vehicle: other): 104 % of control
T/C (dose: 400.0 mg/kg/injection, schedule: Q04DX003 (ip), vehicle: other): 90 % of control

CNC(=S)NNC(=O)C1CC1
T/C (dose: 50.0 mg/kg/injection, schedule: Q01DX005 (ip), vehicle: saline): 94 % of control
T/C (dose: 100.0 mg/kg/injection, schedule: Q01DX005 (ip), vehicle: saline): 107 % of control
T/C (dose: 200.0 mg/kg/injection, schedule: Q01DX005 (ip), vehicle: saline): 94 % of control

Cc1ccc(-c2cc(C)n(C)[n+]2C)cc1
T/C (dose: 12.5 mg/kg/injection, schedule: Q01DX009 (ip), vehicle: saline with Tween-80): 108 % of control
T/C (dose: 25.0 mg/kg/injection, schedule: Q01DX009 (ip), vehicle: saline with Tween-80): 110 % of control

CC(=O)NC(CC(=O)O)C(=O)O (stereo unspecified)
T/C [1]: 95 % of control
T/C [2]: 95 % of control
T/C [3]: 105 % of control

CCc1oc(=O)c(Cc2c(OC(C)=O)cc(OC(C)=O)c3c2OC(c2ccccc2)CC3=O)c(OC(C)=O)c1C (stereo unspecified)
T/C (dose: 1.0 mg/kg/injection, schedule: Q01DX009 (ip), vehicle: Klucel (hydroxypropylcellulose) (HPC)): 99 % of control
T/C (dose: 2.0 mg/kg/injection, schedule: Q01DX009 (ip), vehicle: Klucel (hydroxypropylcellulose) (HPC)): 92 % of control
T/C (dose: 4.0 mg/kg/injection, schedule: Q01DX009 (ip), vehicle: Klucel (hydroxypropylcellulose) (HPC)): 93 % of control
T/C (dose: 8.0 mg/kg/injection, schedule: Q01DX009 (ip), vehicle: Klucel (hydroxypropylcellulose) (HPC)): 92 % of control

Cc1cc(C(C)(CC(C)C)c2ccc(O)c(C)c2)ccc1O
T/C (dose: 100.0 mg/kg/injection, schedule: Q01DX009 (ip), vehicle: gum acacia): 120 % of control
T/C (dose: 200.0 mg/kg/injection, schedule: Q01DX009 (ip), vehicle: gum acacia): 108 % of control

CC(C)(C)N=Cc1ccccc1O.CC(C)(C)N=Cc1ccccc1O.[Cu]
T/C (dose: 6.25 mg/kg/injection, schedule: Q04DX003 (ip), vehicle: saline): 100 % of control
T/C (dose: 12.5 mg/kg/injection, schedule: Q04DX003 (ip), vehicle: saline): 90 % of control
T/C [8]: 95 % of control

CCOC(=O)C(OCc1ccccc1)(C(=O)NCCc1ccc(OC)c(OC)c1)C(C)C (stereo unspecified)
T/C (dose: 25.0 mg/kg/injection, schedule: Q04DX003 (ip), vehicle: other): 100 % of control
T/C (dose: 50.0 mg/kg/injection, schedule: Q04DX003 (ip), vehicle: other): 108 % of control
T/C [7]: 93 % of control

OCc1cncc(F)c1
T/C [2]: 103 % of control
T/C [3]: 103 % of control
T/C [4]: 103 % of control

NCCc1cnc2ccccc2n1
T/C (dose: 18.0 mg/kg/injection, schedule: Q01DX009 (ip), vehicle: saline): 96 % of control
T/C [1]: 100 % of control
T/C [8]: 100 % of control
T/C (dose: 37.0 mg/kg/injection, schedule: Q01DX009 (ip), vehicle: saline): 92 % of control
T/C [2]: 120 % of control
T/C (dose: 50.0 mg/kg/injection, schedule: Q04DX003 (ip), vehicle: saline): 100 % of control
T/C (dose: 100.0 mg/kg/injection, schedule: Q04DX003 (ip), vehicle: saline): 100 % of control

Cc1[nH]nc(-c2ccon2)c1N
T/C [9]: 115 % of control
T/C [10]: 119 % of control
T/C (dose: 200.0 mg/kg/injection, schedule: Q01DX009 (ip), vehicle: saline with Tween-80): 113 % of control

O=C1NC(c2ccccc2)(c2ccccc2)C(=O)N1SC(Cl)(Cl)Cl
T/C (dose: 3.12 mg/kg/injection, schedule: Q01DX009 (ip), vehicle: Klucel (hydroxypropylcellulose) (HPC)): 123 % of control
T/C [6]: 120 % of control
T/C (dose: 12.5 mg/kg/injection, schedule: Q01DX009 (ip), vehicle: Klucel (hydroxypropylcellulose) (HPC)): 120 % of control
T/C [11]: 117 % of control
T/C [12]: 106 % of control

O=C(Nc1cccc(Cl)c1)c1cc(N=Nc2ccc([N+](=O)[O-])cc2Cl)ccc1O
T/C [11]: 114 % of control
T/C [12]: 114 % of control
T/C (dose: 133.0 mg/kg/injection, schedule: Q04DX003 (ip), vehicle: Klucel (hydroxypropylcellulose) (HPC)): 115 % of control
T/C [5]: 161 % of control
T/C (dose: 400.0 mg/kg/injection, schedule: Q04DX003 (ip), vehicle: Klucel (hydroxypropylcellulose) (HPC)): 155 % of control

CC(C)C(NC(=O)C1CCCN1C(=O)OCc1ccccc1)C(=O)NN (stereo not drawn) (Cbz-Pro-Val-NHNH2; configuration not given here)
T/C (dose: 50.0 mg/kg/injection, schedule: Q04DX003 (ip), vehicle: saline with Tween-80): 100 % of control
T/C (dose: 100.0 mg/kg/injection, schedule: Q04DX003 (ip), vehicle: saline with Tween-80): 100 % of control
T/C (dose: 200.0 mg/kg/injection, schedule: Q04DX003 (ip), vehicle: saline with Tween-80): 91 % of control
T/C (dose: 400.0 mg/kg/injection, schedule: Q04DX003 (ip), vehicle: saline with Tween-80): 100 % of control

C=CCCCCCCCCCCCCCCCC (tested in a mixture with another compound)
T/C (dose: 50.0 mg/kg/injection, schedule: Q01DX009 (ip), vehicle: other): 113 % of control

CC[C@@H](O)C[C@H]1CCC[C@@]2(C[C@@H]3OC(=O)/C=C/[C@@](C)(O)[C@@H](O)[C@H](C)[C@@H](O)[C@H](OC4CCC(N(C)C)C(C)O4)[C@@H](O)[C@](C)(O)CCCCC/C=C/[C@@H]4CC(C)(C)O[C@@]4(O)C[C@H](O2)[C@H]3C)O1 (stereo partly specified)
T/C (dose: 0.04 mg/kg/injection, schedule: Q04DX003 (ip), vehicle: saline): 91 % of control
T/C (dose: 0.06 mg/kg/injection, schedule: Q04DX003 (ip), vehicle: saline): 95 % of control
T/C (dose: 0.1 mg/kg/injection, schedule: Q04DX003 (ip), vehicle: saline): 108 % of control
T/C (dose: 7.5 micrograms/kg/injection, schedule: Q01DX009 (ip), vehicle: saline): 100 % of control
T/C (dose: 7.5 micrograms/kg/injection, schedule: Q04DX003 (ip), vehicle: saline): 104 % of control
T/C (dose: 15.0 micrograms/kg/injection, schedule: Q01DX009 (ip), vehicle: saline): 109 % of control
T/C (dose: 15.0 micrograms/kg/injection, schedule: Q04DX003 (ip), vehicle: saline): 104 % of control
T/C (dose: 30.0 micrograms/kg/injection, schedule: Q01DX009 (ip), vehicle: saline): 104 % of control
T/C (dose: 30.0 micrograms/kg/injection, schedule: Q04DX003 (ip), vehicle: saline): 113 % of control

S=C1NC2=C(CCC/C2=C\c2ccccc2)C(c2ccccc2)N1 (stereo unspecified)
T/C [9]: 91 % of control
T/C [10]: 96 % of control
